In assay [1] the test system is M. smegmatis ε subunit overexpresser strain. Kind of assay: microbe, parasite or virus in culture. In kind it is cell-based. The settings on record: Mycolicibacterium smegmatis, 24 h, 1 day, read-out: MIC50 ± SD, ε overexpresser.
The subject of assay [2] is M. bovis BCG. Kind of assay: microbe, parasite or virus in culture. It is filed as cell-based. The conditions noted are these: Mycobacterium tuberculosis variant bovis BCG, 120 h, read-out: Growth inhibition MIC90.
For assay [3], the system named is mycobacterial F-ATP synthase (ATPase activity). Kind of assay: Continuous ATP hydrolysis assay with M. smegmatis inverted membrane vesicles. In kind it is biochemical, Mycobacterium smegmatis.
Assay [4] addresses M. smegmatis F-ATP synthase (Mycolicibacterium smegmatis, UniProt A0R1Z9+A0R205). Kind of assay: biochemical. Further details: species or system Mycobacterium smegmatis.
Assay [5] has as its system M. bovis BCG. Kind of assay: microbe, parasite or virus in culture. It is filed as cell-based. The settings on record: Mycobacterium tuberculosis variant bovis BCG, 24 h, read-out: IC50 ATP depletion (intrabacterial ATP).
For assay [6], the target named is mycobacterial F-ATP synthase (Mycobacterium bovis, UniProt A1KI93+A1KI99). Kind of assay: biochemical. Further details: species or system Mycobacterium bovis BCG.
mycobacterial F-ATP synthase, sequence (A1KI93 whole entry, looked up): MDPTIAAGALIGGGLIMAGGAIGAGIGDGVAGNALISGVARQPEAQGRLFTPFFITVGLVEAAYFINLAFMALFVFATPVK
mycobacterial F-ATP synthase, sequence (A1KI99 whole entry, looked up): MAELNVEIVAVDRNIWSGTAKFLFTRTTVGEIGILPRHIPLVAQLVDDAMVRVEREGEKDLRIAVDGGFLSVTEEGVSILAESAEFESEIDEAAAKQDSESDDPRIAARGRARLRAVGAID
In assay [7] the test system is M. tuberculosis H37Rv. Kind of assay: microbe, parasite or virus in culture. It is filed as cell-based. The conditions noted are these: Mycobacterium tuberculosis, 168 h, read-out: M. tuberculosis H37Rv MIC90.
For assay [8], the system named is M. smegmatis WT. Kind of assay: microbe, parasite or virus in culture. It is filed as cell-based, Mycobacterium smegmatis. The settings on record: Mycolicibacterium smegmatis; for MIC50: 24 h, read-out: MIC50 ± SD, M. smegmatis WT.

What is called IC50 is the concentration that gives 50% inhibition.

Structures are written as SMILES. In brackets after ≈: the same amount, converted by molar mass.

Regarding `COc1cc([C@](O)(CCN(C)C)[C@H](c2cc(OC(C)C)cnc2OC)c2cc3cc(Br)ccc3nc2OC)cc(OC)n1` [compound 5366], the MIC50 worked out at 14.3 ± 0.07 nM (≈ 9.37 ng/mL) in assay [1] and 2.1 ± 0.06 nM (≈ 1.38 ng/mL) in assay [8]. Also, the MIC90 in assay [2] came to 3.4 nM (≈ 2.23 ng/mL); in assay [7] it was 30 nM (≈ 19.7 ng/mL); in assay [8] it was 5.5 nM (≈ 3.61 ng/mL). The “Inhibition of ATPase activity” value in assay [3] (100 μM) is listed as 36%; in assay [3] (250 μM) it was 40%. For the same compound, the IC50 was determined as 0.0164 nM in assay [4], 0.32 nM in assay [5] and 0.2 nM in assay [6].
`COc1cc([C@](O)(CCN(C)C)[C@@H](c2cc3cc(Br)ccc3nc2OC)c2cccc3c2OCCO3)cc(OC)n1` [compound 5316]: the MIC50 in assay [1] is 1.68 ± 0.02 nM (≈ 1.05 ng/mL); in assay [8], 0.6 ± 0.03 nM (≈ 0.375 ng/mL). The MIC90 in assay [2] amounted to 3.6 nM (≈ 2.25 ng/mL); in assay [7] it was 70 nM (≈ 43.7 ng/mL); in assay [8] it was 4.6 nM (≈ 2.87 ng/mL). Further, the “Inhibition of ATPase activity (in words)” value in assay [3] (BDQ-like) is listed as “strong”. The figures for the IC50 in assay [4], in assay [5] and in assay [6] were 0.011 nM, 0.34 nM and 0.047 nM, respectively.
For the compound `COc1nc2ccc(Br)cc2cc1[C@@H](c1ccccc1)[C@@](O)(CCN(C)C)c1cccc2ccccc12` [BDQ, Bedaquiline, reference compound], the MIC50 in assay [1] was determined as 24 ± 0.1 nM (≈ 13.3 ng/mL); in assay [8], 12 ± 0.1 nM (≈ 6.67 ng/mL). For the same compound, the MIC90 in assay [2] was 70 nM (≈ 38.9 ng/mL); in assay [7] it was 400 nM (≈ 222 ng/mL); in assay [8], 100 nM (≈ 55.6 ng/mL). In addition, the “Inhibition of ATPase activity” value in assay [3] (100 μM) worked out at 78%. In addition, the “Inhibition of ATPase activity (in words)” value in assay [3] (250 μM) is listed as “almost completely”. The values for the IC50 in assay [4], in assay [5] and in assay [6] were 0.2 nM, 9.16 nM and 5.3 nM, respectively.
For `COc1cc([C@](O)(CCN(C)C)[C@@H](c2cc3cc(Br)ccc3nc2OC)c2cc(OC)nc(OC)c2OC)cc(OC)n1` [TBAJ-876], the MIC50 in assay [1] was determined as 2.75 ± 0.02 nM (≈ 1.81 ng/mL); in assay [8], 1.1 ± 0.05 nM (≈ 0.723 ng/mL). Further, the MIC90 in assay [2] came out at 7.2 nM (≈ 4.73 ng/mL); in assay [7], 125 nM (≈ 82.2 ng/mL); in assay [8] it was 6.3 nM (≈ 4.14 ng/mL). Also, the “Inhibition of ATPase activity (in words)” value in assay [3] (BDQ-like) is on record as “strong”. Further, the half-inhibitory concentration (IC50) is 0.0059 nM in assay [4], 0.89 nM in assay [5] and 0.031 nM in assay [6].
For `COc1cc([C@](O)(CCN(C)C)[C@@H](c2cc3cc(Br)ccc3nc2OC)c2ccnc(OC)c2OC)cc(OC)n1` [compound 5307], the MIC50 was 8 ± 0.1 nM (≈ 5.02 ng/mL) in assay [1] and 0.8 ± 0.05 nM (≈ 0.502 ng/mL) in assay [8]. For the same compound, the MIC90 turned out to be 3.6 nM (≈ 2.26 ng/mL) in assay [2], 70 nM (≈ 43.9 ng/mL) in assay [7] and 3.5 nM (≈ 2.2 ng/mL) in assay [8]. For the same compound, the “Inhibition of ATPase activity (in words)” value in assay [3] (BDQ-like) is given as “strong”. For the same compound, the half-inhibitory concentration (IC50) is 0.0087 nM in assay [4], 0.48 nM in assay [5] and 0.091 nM in assay [6].

The record behind these values is paper PMC6761534 (Antimicrobial Agents and Chemotherapy, 2019).
